Measurements published in patent publication US11945813B2, “5-substituted 4-amino-1H-benzo[c][1,2,6]thiadiazine 2,2-dioxides and formulations and uses thereof” (Firmenich Incorporated, priority 2018, dated 2024).

Target: T1, T1R2/T1R3 taste receptor (Homo sapiens, UniProt Q8TE23)
T1 sequence (Q8TE23 20-839): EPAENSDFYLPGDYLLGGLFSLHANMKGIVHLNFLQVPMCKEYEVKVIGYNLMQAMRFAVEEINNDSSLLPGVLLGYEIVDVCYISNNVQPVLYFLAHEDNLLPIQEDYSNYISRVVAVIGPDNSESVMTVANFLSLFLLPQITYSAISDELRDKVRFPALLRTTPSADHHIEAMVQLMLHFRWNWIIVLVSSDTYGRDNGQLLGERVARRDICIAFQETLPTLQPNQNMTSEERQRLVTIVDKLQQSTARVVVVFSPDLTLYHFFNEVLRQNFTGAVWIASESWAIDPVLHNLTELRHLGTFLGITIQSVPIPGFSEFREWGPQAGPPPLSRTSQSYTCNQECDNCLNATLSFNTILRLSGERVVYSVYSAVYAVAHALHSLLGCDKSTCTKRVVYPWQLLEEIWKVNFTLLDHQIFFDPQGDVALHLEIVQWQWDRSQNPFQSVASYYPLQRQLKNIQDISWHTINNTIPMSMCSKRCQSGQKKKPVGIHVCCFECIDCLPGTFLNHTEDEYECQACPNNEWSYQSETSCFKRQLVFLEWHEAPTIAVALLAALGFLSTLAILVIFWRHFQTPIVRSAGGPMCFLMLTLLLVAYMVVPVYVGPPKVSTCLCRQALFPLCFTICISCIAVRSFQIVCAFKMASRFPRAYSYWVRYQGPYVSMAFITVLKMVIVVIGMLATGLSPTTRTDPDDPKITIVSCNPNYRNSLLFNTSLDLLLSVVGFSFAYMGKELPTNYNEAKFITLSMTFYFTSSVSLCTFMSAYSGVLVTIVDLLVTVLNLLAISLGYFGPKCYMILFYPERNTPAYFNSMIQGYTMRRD
T1 sequence (Q7RTX0 21-852 partner): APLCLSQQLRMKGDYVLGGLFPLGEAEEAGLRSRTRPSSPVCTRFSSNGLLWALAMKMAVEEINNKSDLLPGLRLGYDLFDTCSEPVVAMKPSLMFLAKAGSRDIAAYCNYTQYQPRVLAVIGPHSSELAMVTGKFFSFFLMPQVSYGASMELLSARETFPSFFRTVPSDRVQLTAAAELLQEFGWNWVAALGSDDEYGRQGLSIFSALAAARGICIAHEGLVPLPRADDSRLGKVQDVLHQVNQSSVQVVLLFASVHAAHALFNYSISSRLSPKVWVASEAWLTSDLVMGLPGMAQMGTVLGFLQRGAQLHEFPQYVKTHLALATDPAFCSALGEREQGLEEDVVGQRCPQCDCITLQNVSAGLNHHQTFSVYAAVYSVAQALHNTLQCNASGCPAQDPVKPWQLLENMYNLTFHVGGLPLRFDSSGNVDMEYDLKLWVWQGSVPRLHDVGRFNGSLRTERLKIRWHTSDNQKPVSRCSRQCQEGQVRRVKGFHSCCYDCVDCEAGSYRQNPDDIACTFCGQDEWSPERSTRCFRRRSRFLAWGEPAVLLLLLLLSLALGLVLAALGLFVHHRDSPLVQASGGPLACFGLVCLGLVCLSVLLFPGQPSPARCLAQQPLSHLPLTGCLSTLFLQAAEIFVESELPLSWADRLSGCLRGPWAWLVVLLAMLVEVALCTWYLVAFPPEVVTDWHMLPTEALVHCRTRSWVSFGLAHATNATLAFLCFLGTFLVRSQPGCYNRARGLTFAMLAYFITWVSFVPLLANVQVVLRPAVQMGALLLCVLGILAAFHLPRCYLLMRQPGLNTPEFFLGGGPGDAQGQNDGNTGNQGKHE
Assay: Receptor-based assay: sweetener EC50 alone and with test compound (enhancement ratio)
Type: cell-based
Conditions: for Fructose Enhancement EC50 Ratio: sweetener fructose; for Sucralose Enhancement EC50 Ratio: sweetener sucralose; for Sucrose Enhancement EC50 Ratio: sweetener sucrose
Method in brief: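 Sucrose, sucralose or fructose EC50 measured on human T1R2/T1R3, alone and with 3, 10 or 50 μM test compound. Enhancement is the EC50 ratio without/with compound, binned A >20, B 10-20, C >1 to <10.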

## NC1=NS(=O)(=O)Nc2cccc(OC[C@H]3CCCN(c4cccc(C(=O)NC5CCCC5)n4)C3)c21 [Compound 408]
50 μM test compound
  Fructose Enhancement EC50 Ratio: C (A “C” value indicates an enhancement ratio greater than 1 and less than 10)
  Sucralose Enhancement EC50 Ratio: A (An “A” value indicates an enhancement ratio of greater than 20)
  Sucrose Enhancement EC50 Ratio: B (A “B” value indicates an enhancement ratio from 10 to 20)
10 μM test compound
  Sucralose Enhancement EC50 Ratio: A (An “A” value indicates an enhancement ratio of greater than 20)
  Sucrose Enhancement EC50 Ratio: B (A “B” value indicates an enhancement ratio from 10 to 20)
3 μM test compound
  Sucrose Enhancement EC50 Ratio: C (A “C” value indicates an enhancement ratio greater than 1 and less than 10)

## NC1=NS(=O)(=O)Nc2cccc(OC[C@H]3CCCN(c4cccc(C(=O)NC5CCCCC5)n4)C3)c21 [Compound 409]
10 μM test compound
  Sucralose Enhancement EC50 Ratio: A (An “A” value indicates an enhancement ratio of greater than 20)
  Sucrose Enhancement EC50 Ratio: C (A “C” value indicates an enhancement ratio greater than 1 and less than 10)
50 μM test compound
  Sucralose Enhancement EC50 Ratio: A (An “A” value indicates an enhancement ratio of greater than 20)
  Sucrose Enhancement EC50 Ratio: B (A “B” value indicates an enhancement ratio from 10 to 20)
3 μM test compound
  Sucrose Enhancement EC50 Ratio: C (A “C” value indicates an enhancement ratio greater than 1 and less than 10)

## CN(C)C(=O)c1cccc(N2CCC[C@H](COc3cccc4c3C(N)=NS(=O)(=O)N4)C2)n1 [Compound 410]
50 μM test compound
  Fructose Enhancement EC50 Ratio: C (A “C” value indicates an enhancement ratio greater than 1 and less than 10)
  Sucralose Enhancement EC50 Ratio: A (An “A” value indicates an enhancement ratio of greater than 20)
  Sucrose Enhancement EC50 Ratio: B (A “B” value indicates an enhancement ratio from 10 to 20)
10 μM test compound
  Sucralose Enhancement EC50 Ratio: B (A “B” value indicates an enhancement ratio from 10 to 20)
  Sucrose Enhancement EC50 Ratio: B (A “B” value indicates an enhancement ratio from 10 to 20)
3 μM test compound
  Sucrose Enhancement EC50 Ratio: C (A “C” value indicates an enhancement ratio greater than 1 and less than 10)

## CCN(CC)C(=O)c1cccc(N2CCC[C@H](COc3cccc4c3C(N)=NS(=O)(=O)N4)C2)n1 [Compound 411]
10 μM test compound
  Sucralose Enhancement EC50 Ratio: B (A “B” value indicates an enhancement ratio from 10 to 20)
  Sucrose Enhancement EC50 Ratio: C (A “C” value indicates an enhancement ratio greater than 1 and less than 10)
3 μM test compound
  Sucrose Enhancement EC50 Ratio: C (A “C” value indicates an enhancement ratio greater than 1 and less than 10)

## NC1=NS(=O)(=O)Nc2cccc(OC[C@H]3CCCN(c4cccc(C(=O)N5CCCC5)n4)C3)c21 [Compound 412]
10 μM test compound
  Fructose Enhancement EC50 Ratio: C (A “C” value indicates an enhancement ratio greater than 1 and less than 10)
  Sucralose Enhancement EC50 Ratio: A (An “A” value indicates an enhancement ratio of greater than 20)
  Sucrose Enhancement EC50 Ratio: C (A “C” value indicates an enhancement ratio greater than 1 and less than 10)
50 μM test compound
  Fructose Enhancement EC50 Ratio: C (A “C” value indicates an enhancement ratio greater than 1 and less than 10)
  Sucralose Enhancement EC50 Ratio: A (An “A” value indicates an enhancement ratio of greater than 20)
  Sucrose Enhancement EC50 Ratio: B (A “B” value indicates an enhancement ratio from 10 to 20)
3 μM test compound
  Sucrose Enhancement EC50 Ratio: C (A “C” value indicates an enhancement ratio greater than 1 and less than 10)
